Assay results reported in article PMC11243066, “Synthesis and Biological Evaluation of Novel Biased Mu-Opioid Receptor Agonists” (Molecules, 2024).
Where two headings read alike, the source gives them in different places.

Key:
human μ-opioid receptor = target: T1, human μ-opioid receptor (Homo sapiens, UniProt P35372); test: cell-based; format: cell-based; settings: CHO/μOR cells; for EC50: cAMP inhibition, "-" = no measurable activity, read-out: EC50 (nM) (95% CI), µOR-Gi/o activation assay; for EC50 / Emax: n = 3; for Emax: at the concentration printed in parentheses in the cell, read-out: Max Effect ± SEM (%), µOR-Gi/o activation assay
T1 construct: expressed in transfected cells; host or cells: CHO (CHO/μOR cells)
Experimental: The inhibition assay was performed as described previously. In brief, tested compound dilutions (with final concentrations of 100 µM, 50 µM, 10 µM, 1 µM, 500 nM, 100 nM, 50 nM, 10 nM, 1 nM, and 100 pM) were produced in saline or DMSO in triplicate. CHO/μOR cells were suspended in the assay buffer and counted, maintaining a cell density of 2000 cells per well, with 5 µL from each well seeded into a 384-well plate. Subsequently, 5 µL of the tested compound solution per well was dispensed into the plate, which was then placed in a 25 °C incubator and incubated in the dark for 30 min. Next, 10 µL of cAMP standard working solution was added to the empty wells of the plate, followed by the addition of 5 µL of Eu-cAMP and Anti-cAMP per well. The plate was subsequently placed back in a 25 °C incubator and further incubated in the dark for 1 h.
CHO cells expressing the human μ-opioid receptor were cultivated for the assessment of compound effects. […] Cells collected during the exponential phase of growth were dissociated without enzymes to preserve receptor integrity, resuspended in assay buffer, and counted to achieve a uniform concentration. Cell density was adjusted to 2000 cells per well in a 384-well plate, promoting uniform distribution and optimal receptor presence. Post-seeding at 25 °C in darkness facilitated cell adherence and stabilization prior to compound introduction. Compounds were added in serial dilutions, with meticulous dispensing techniques ensuring dose uniformity. Following a 1 h incubation at 25 °C, TR-FRET reagents were applied to measure cAMP levels, indicative of μOR activity. The Envision system recorded these levels, quantifying compound inhibitory effects. Meticulous aseptic techniques and vigilant monitoring were imperative throughout to guarantee data precision from the assay.

[1] = target: T2, human μOR β-arrestin2 pathway (Homo sapiens, UniProt P35372); test: cell-based; format: cell-based; settings: for Emax: read-out: Max Effect ± SEM (%), µOR β-arrestin recruitment assay; for EC50: "-" = no measurable activity, read-out: EC50 (nM) (95% CI), µOR β-arrestin recruitment assay
T2 construct: β-galactosidase enzyme fragment (PathHunter complementation tag); host or cells: U2OS (U2OS/human μOR β-arrestin cells)
Experimental: In this assay, optical signal values were detected employing the PathHunter® (DiscoverX, Shanghai, China) Detection Kit assay method. The agonistic activity of tested compounds on the human μOR β-arrestin2 pathway was quantified using a β-galactosidase-based enzyme fragment complementation assay. In brief, tested compound dilutions (with final concentrations of 100 μM, 50 μM, 10 μM, 1 μM, 500 nM, 100 nM, 50 nM, 10 nM, 1 nM, and 100 pM) were produced in saline or DMSO in triplicate. Next, 100 nL of the tested compound solution per well was dispensed into a 384-well cell culture plate. The U2OS/human μOR β-arrestin cells were resuspended in Opti-MEM and counted to achieve a cell density of 4000 cells per well, and 20 μL from each well was seeded into the 384-well cell culture plate. The plate was subsequently incubated at 37 °C in the dark for 120 min. Post-incubation, the cell plate was equilibrated to room temperature for 10–20 min, and 5 μL of the detection reagent were added to each well. Following a 60 min incubation at 25 °C, chemiluminescent readings were obtained using the envision system.
The cells were maintained at 37 °C with 5% CO2 in McCoy’s 5a medium with supplements and cultivated utilizing precise techniques to ensure accurate, reproducible results. Cells were gently dissociated for assays to maintain receptor integrity and resuspended in Opti-MEM® for compatibility with the PathHunter® (DiscoverX, Shanghai, China). Detection Kit. Cell density was adjusted to 4000 cells per well in a 384-well plate, to ensure that a uniform monolayer was established for the β-galactosidase assay. After seeding and incubation in the dark at 37 °C to facilitate cell attachment, the plates were equilibrated to room temperature prior to compound treatment. Serial dilutions of the compounds were assessed for pharmacological effect. A detection reagent was then added to measure β-galactosidase activity as indicative of μ-opioid receptor and β-arrestin2 interaction. Following reagent incubation, chemiluminescence was quantified, providing quantitative data on compound agonistic activity. Throughout, meticulous aseptic technique and strict adherence to protocols were imperative to ensure the integrity of the pharmacological data derived from these studies.

mice [2] = test: Acetic acid-induced writhing test; format: in vivo, CD-1 mice; settings: 20 mg/kg i.v. tail vein
Experimental: (§1) Food and water were provided ad libitum.
The acetic acid-induced writhing test was performed as described previously. In brief, after pretreatment with the test compound at a dose of 20 mg/kg via intravenous tail vein injection, 1% (v/v) glacial acetic acid was administered intraperitoneally (i.p.) at a dose of 10 mL/kg. Subsequently, the number of writhing responses over a 20 min period was recorded. The antinociception rate was calculated as the percentage of maximal possible effect (%MPE), where %MPE = 100 × (NWV − NWT)/NWV. NWV and NWT represent the average number of writhing responses of the vehicle and test groups, respectively.

mice [3] = test: Formalin paw-licking test; format: in vivo, CD-1 mice; settings: 20 mg/kg i.v. tail vein, Phase II
Experimental: as §1
The formalin injection assay was performed as described previously. […] After 15 min, 30 µL of a 2.7% formalin solution was administered into the right hind paw of each mouse. Then, the mice were put into the cage and their behaviors were observed. The antinociception rate was quantified as the percentage of maximal possible effect (%MPE), calculated as %MPE = 100 × (PLTV − PLTT)/PLTV; PLTV and PLTT represent the average paw-licking duration during Phase II for the vehicle and test groups, respectively.

mice [4] = test: Respiratory depression (blood pO2, blood gas analyzer); settings: single i.v. dose 20 mg/kg (morphine 4 mg/kg), 5-40 min
Experimental: (§2) The mice were group-housed in a controlled temperature environment and subjected to a 12 h light/dark cycle (lights on from 07:00 to 19:00). Food and water were provided ad libitum. All animal procedures were conducted in accordance with the policies and recommendations of the International Association for the Study of Pain and the National Health and Animal Welfare Committee of the Beijing Institute of Pharmacology, with the aim of minimizing the number of animals used and their suffering.

mice [5] = test: Physical dependence (naloxone-precipitated withdrawal jumping); settings: i.v. once daily for 5 days, PZM21 and 6a 20 mg/kg, morphine 2 mg/kg, jumps over 20 min
Experimental: as §2

mice [6] = test: Hot-water tail withdrawal test; format: in vivo, CD-1 mice; settings: 20 mg/kg i.v. tail vein, 15 min post administration
Experimental: as §1
The hot-water tail withdrawal test was performed as described previously. In brief, the hot-water tail withdrawal test was conducted using a water bath maintained at 55 ± 0.5 °C. The distal 3 cm section of the mouse’s tail was immersed perpendicularly into the hot water. The duration for which the tail remained in the water was recorded as the initial tail withdrawal latency (TWL0). […] Following the administration of a single dose of the test compound (20 mg/kg, i.v.) or vehicle, the subsequent tail withdrawal latency (TWL) was measured at various time intervals (15, 30, 45, 60, and 90 min). To prevent potential tissue damage, a maximum cutoff latency of 16 s was enforced. Antinociception was quantified using the percentage of maximal possible effect (%MPE), calculated as %MPE = 100 × (TWL − TWL0)/(16 − TWL0).

[7] = U2OS/human μOR β-arrestin cells, at the concentration printed in parentheses in the cell, n = 3
[8] = U2OS/human μOR β-arrestin cells, n = 3

T2 sequence (P35372 whole entry, the tested form may be a part): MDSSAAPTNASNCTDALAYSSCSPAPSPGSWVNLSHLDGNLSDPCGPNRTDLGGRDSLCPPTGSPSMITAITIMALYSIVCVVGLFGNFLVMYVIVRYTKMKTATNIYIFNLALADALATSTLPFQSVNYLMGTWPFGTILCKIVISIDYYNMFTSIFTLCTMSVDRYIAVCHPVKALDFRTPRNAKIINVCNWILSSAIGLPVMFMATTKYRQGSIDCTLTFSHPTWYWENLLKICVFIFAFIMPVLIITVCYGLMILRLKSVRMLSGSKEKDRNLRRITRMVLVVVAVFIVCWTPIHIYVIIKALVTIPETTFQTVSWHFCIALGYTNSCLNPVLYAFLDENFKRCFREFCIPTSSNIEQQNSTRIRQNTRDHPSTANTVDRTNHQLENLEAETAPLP
T1 sequence (P35372 whole entry): as the sequence (P35372 whole entry, the tested form may be a part) above

Row | SMILES | EC50 (human μ-opioid receptor) [nM] | Emax (human μ-opioid receptor) [%] | Emax [1, 7] [%] | EC50 [1, 8] [nM] | Emax ([1]; U2OS) [%] | µOR agonist efficacy in Gi/o-protein signaling assay (in words) (human μ-opioid receptor) | analgesia rate (%MPE), acetic acid-induced writhing (mice [2]) | antinociceptive efficacy (%MPE), formalin-induced paw licking, second phase (mice [3]) [%] | respiratory depression: partial pressure of oxygen in blood vs vehicle (mice [4]) | physical dependence: jumping after naloxone-precipitated withdrawal vs vehicle (mice [5]) | pain inhibition rate (%MPE), hot-water tail-withdrawal test (mice [6]) [%]
1 | CN(C)[C@H](CNC(=O)NCCc1ccc(F)cc1)Cc1cccc2ccccc12 [6d, (S)-1-(2-(dimethylamino)-3-(naphthalen-1-yl)propyl)-3-(4-fluorophenethyl) urea] | 88 | 87.8 ± 1.18 | 7.72 ± 2.88 | > 100000 | – | – | – | – | – | – | –
2 | C[C@@H](NC(=O)[C@@H](N)Cc1ccc(O)cc1)C(=O)NCC(=O)N(C)[C@@H](Cc1ccccc1)C(=O)NCCO [DAMGO, [D-Ala2, N-MePhe4, Gly-ol]-enkephalin, reference compound] | – | – | – | – | 91.2 | – | – | – | – | – | –
3 | Cc1ccccc1NC(=O)NC[C@H](Cc1cccc2ccccc12)N(C)C [6i, (S)-1-(2-(dimethylamino)-3-(naphthalen-1-yl)propyl)-3-(o-tolyl) urea] | > 100000 | 7.1 ± 0.77 | 1.96 ± 0.72 | > 100000 | – | – | – | – | – | – | –
4 | CN(C)[C@H](CNC(=O)NCc1ccc(F)cc1)Cc1cccc2ccccc12 [6c, (S)-1-(2-(dimethylamino)-3-(naphthalen-1-yl)propyl)-3-(4-fluorobenzyl) urea] | 72.8 | 42.67 ± 0.27 | 1.06 ± 0.93 | > 100000 | – | – | – | – | – | – | –
5 | Cc1ccccc1CCNC(=O)NC[C@H](Cc1cccc2ccccc12)N(C)C [6f, (S)-1-(2-(dimethylamino)-3-(naphthalen-1-yl)propyl)-3-(2-methylphenethyl) urea] | 107 | 84.8 ± 1.86 | 5.45 ± 1.75 | > 100000 | – | significant µOR agonist efficacy | exceeding 97% | 59.32 | – | – | –
6 | CN1CC[C@]23c4c5ccc(O)c4O[C@H]2[C@@H](O)C=C[C@H]3[C@H]1C5 [Morphine] | – | – | – | – | – | – | – | – | significant reduction in the partial pressure of oxygen level | significantly greater frequency of jumping | –
7 | C[C@@H](Cc1ccsc1)NC(=O)NC[C@H](Cc1ccc(O)cc1)N(C)C [PZM21, reference compound] | – | 89.8 ± 2.93 | 3.09 ± 0.42 | – | – | significant µOR agonist efficacy | – | 72.72 | neither the 6a group nor the PZM21 group demonstrated any reduction in respiratory measures | neither 6a nor PZM21 elicited a significant increase in withdrawal behaviors | 69.23
8 | COc1ccc(CCNC(=O)NC[C@H](Cc2cccc3ccccc23)N(C)C)cc1 [6e, (S)-1-(2-(dimethylamino)-3-(naphthalen-1-yl)propyl)-3-(4-methoxyphenethyl) urea] | > 100000 | -1.41 ± 5.21 | 2.95 ± 1.37 | > 100000 | – | – | – | – | – | – | –
9 | CN(C)[C@H](CNC(=O)Nc1ccccc1)Cc1cccc2ccccc12 [6g, (S)-1-(2-(dimethylamino)-3-(naphthalen-1-yl)propyl)-3-phenyl urea] | 59.5 | 24.6 ± 0.4 | 1.12 ± 0.52 | > 100000 | – | significant µOR agonist efficacy | – | – | – | – | –
10 | CN(C)[C@H](CNC(=O)NCc1ccco1)Cc1cccc2ccccc12 [6j, (S)-1-(2-(dimethylamino)-3-(naphthalen-1-yl)propyl)-3-(furan-2-ylmethyl) urea] | 97.8 | 27.2 ± 1.71 | 1.63 ± 0.32 | > 100000 | – | significant µOR agonist efficacy | – | – | – | – | –
11 | CN(C)[C@H](CNC(=O)NCCc1ccccc1)Cc1cccc2ccccc12 [6b, (S)-1-(2-(dimethylamino)-3-(naphthalen-1-yl)propyl)-3-phenethyl urea] | 110 | 73.9 ± 2.38 | 1.99 ± 1.77 | > 100000 | – | – | – | – | – | – | 35.89
12 | CN(C)[C@H](CNC(=O)NCC1CCCCC1)Cc1cccc2ccccc12 [6k, (S)-1-(cyclohexylmethyl)-3-(2-(dimethylamino)-3-(naphthalen-1-yl)propyl) urea] | > 100000 | 20.4 ± 10.6 | 4.15 ± 0.02 | > 100000 | – | – | exceeding 97% | – | – | – | –
13 | Cc1ccccc1CNC(=O)NC[C@H](Cc1cccc2ccccc12)N(C)C [6h, (S)-1-(2-(dimethylamino)-3-(naphthalen-1-yl)propyl)-3-(2-methylbenzyl) urea] | 13.1 | 41.7 ± 0.07 | 2.19 ± 1.91 | > 100000 | – | significant µOR agonist efficacy | exceeding 97% | 78.03 | – | – | 41.73
14 | CN(C)[C@H](CNC(=O)NC1CCCCC1)Cc1cccc2ccccc12 [6l, (S)-1-cyclohexyl-3-(2-(dimethylamino)-3-(naphthalen-1-yl)propyl) urea] | > 100000 | 18.1 ± 1.81 | 1.96 ± 0.45 | > 100000 | – | – | – | – | – | – | –
